# Experimental data reported in paper PMC5352362, “Molecular and functional evaluation of a novel HIF inhibitor, benzopyranyl 1,2,3-triazole compound” (Oncotarget, 2016).
# Target: HIF-1α (Homo sapiens, UniProt Q16665)
# Experiment: HIF-1α ubiquitination, IP/IB with MG132 in A549 cells
# Type: cell-based
# Details: hypoxia 16 h, then MG132 20 μM 4 h, compared to normoxic control cells
# Experimental: Figure 4 Compound 12 increased hydroxylation and proteasome-mediated degradation of HIF-1α (A) A549 cells were treated with Compound 12 (at concentrations of 0 nM, 1 nM, 10 nM, and 100 nM) for 16 h. Cells were fixed with paraformaldehyde; an immunofluorescence assay was then performed using anti-HIF-1α antibodies and Alexa Fluor 488-labeled secondary antibodies (green). Nuclei were stained with DAPI. N, normoxia; H, hypoxia. (B) A549 cells were treated with Compound 12 (10 nM concentration) and exposed to hypoxic conditions for 16 h. Cells were immediately treated with cycloheximide (CHX, 100 μg/mL) for the time indicated, and HIF-1α protein levels were determined by western blotting. β-actin was used as an internal control. Half-life (t1/2) of HIF-1α protein was determined using relative expression levels of HIF-1α. (C) A549 cells were treated with Compound 12 (at concentrations of 0 nM, 1 nM, 10 nM, and 100 nM) for 16 h. The expression levels of HIF-1α, hydroxylated (OH)-HIF-1α at P402 or P564, and PHD2 were determined via western blotting using specific antibodies. N, normoxia; H, hypoxia. (D) A549 cells were transfected with two kinds of small interfering RNAs targeting PHD2 and then treated with Compound 12 under hypoxic exposure for 16 h. Cell lysates were immunoblotted with an anti-HIF-1α and PHD2 antibody. […] Relative levels of ubiquitinated HIF-1α were quantified and graphed. […]
# HIF-1α, sequence (Q16665 whole entry): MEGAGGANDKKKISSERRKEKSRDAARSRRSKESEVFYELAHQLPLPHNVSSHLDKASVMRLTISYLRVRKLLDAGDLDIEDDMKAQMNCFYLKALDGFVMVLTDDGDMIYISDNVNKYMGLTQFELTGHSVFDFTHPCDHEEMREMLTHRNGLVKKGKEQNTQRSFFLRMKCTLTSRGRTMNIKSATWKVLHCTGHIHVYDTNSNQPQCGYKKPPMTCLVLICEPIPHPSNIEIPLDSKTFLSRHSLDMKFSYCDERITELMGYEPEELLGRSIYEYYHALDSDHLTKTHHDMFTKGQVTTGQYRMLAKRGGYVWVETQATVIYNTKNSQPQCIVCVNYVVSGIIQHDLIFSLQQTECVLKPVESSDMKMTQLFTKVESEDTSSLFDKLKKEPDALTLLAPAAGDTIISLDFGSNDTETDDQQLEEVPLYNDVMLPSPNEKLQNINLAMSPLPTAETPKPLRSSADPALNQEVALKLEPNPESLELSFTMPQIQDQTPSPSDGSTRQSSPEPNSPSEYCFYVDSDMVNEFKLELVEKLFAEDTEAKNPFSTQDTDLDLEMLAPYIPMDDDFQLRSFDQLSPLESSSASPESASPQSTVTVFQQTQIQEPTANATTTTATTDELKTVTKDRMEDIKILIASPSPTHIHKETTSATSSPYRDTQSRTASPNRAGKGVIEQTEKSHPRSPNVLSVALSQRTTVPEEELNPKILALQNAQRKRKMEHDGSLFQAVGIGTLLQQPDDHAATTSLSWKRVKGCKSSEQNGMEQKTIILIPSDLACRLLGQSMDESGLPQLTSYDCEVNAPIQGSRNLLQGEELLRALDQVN
structure (smiles),measurement,value
"COc1ccc(-c2cn(CC3(C)C=Cc4cc([N+](=O)[O-])ccc4O3)nn2)cc1 (stereo not shown) [Compound 12, 4-(4-methoxyphenyl)-1-((2-methyl-6-nitro-2H-chromen-2-yl)methyl)-1H-1,2,3-triazole]",ubiquitination of HIF-1α,significantly increased
